Reference: patent publication US10638750B2, “Compositions containing a hollow glucan particle or a cell wall particle encapsulating a terpene component, methods of making and using them” (Eden Research PLC, priority 2004, dated 2020)
Where two headings read alike, the source gives them in different places.

How the values were obtained:
Saccharomyces cerevisiae = Saccharomyces cerevisiae MIC assays comparing free terpene emulsions with yeast-encapsulated terpenes; type: cell-based; settings: free terpene emulsion; for Cidal MIC Free terpene emulsions: re-incubation in fresh medium
Procedure: One column was designated as a cell-only control and no terpene was added to these wells. Serial 2-fold dilutions were performed by transferring 100 μL from one row to the next a total of 7 times. […] Microtitre plates were incubated statically overnight at 30° C. […] Growth inhibition was visually confirmed by microscopy. For the free terpene emulsions, once the MIC had been determined for each formulation, the microtitre plates were centrifuged and the spent medium was removed from the growth-inhibited wells. The cells were resuspended in fresh medium (100 μL) and the plates were re-incubated overnight at 30° C. Assessment of growth inhibition was performed as before.

S. aureus = experiment: MIC of terpene emulsions and fresh or freeze-dried Baker's YP and SAF Mannan encapsulated terpenes; type: cell-based; settings: for MIC: Staphylococcus aureus
Procedure: The results of a protocol performed to compare the MIC of fresh versus freeze dried hollow glucan particle encapsulated terpene formulations are shown below in Table 13. A simple terpene emulsion was also tested and the results are shown for comparison.

E. coli = settings: cited from earlier work
[1] = Citral solution and stable suspension limits; type: physicochemical
[2] = Terpene stability by formation of a yellow colored oxidation product of citral; type: physicochemical
H. pylori = settings: in vitro; cited from earlier work
[3] = encapsulated in Baker's YP, freeze dried, read-out: MIC μg/ml terpene, Bakers Freeze Dried
[4] = encapsulated in Baker's YP, fresh, read-out: MIC μg/ml terpene, Bakers Fresh
[5] = encapsulated in SAF Mannan, freeze dried, read-out: MIC μg/ml terpene, SAF Mannan Freeze Dried
[6] = encapsulated in SAF Mannan, fresh, read-out: MIC μg/ml terpene, SAF Mannan Fresh
[7] = terpene emulsion, not encapsulated, read-out: MIC μg/ml terpene, Emulsion

| Compound | MIC Free terpene emulsions (Saccharomyces cerevisiae) | Cidal MIC Free terpene emulsions (Saccharomyces cerevisiae) | MIC (S. aureus; [3]) | MIC (S. aureus; [4]) | MIC (S. aureus; [5]) | MIC (S. aureus; [6]) | MIC (S. aureus; [7]) | further results |
| --- | --- | --- | --- | --- | --- | --- | --- | --- |
| CC(C)=CCCC(C)=CC=O (mixture of isomers) [C (4)] | 125 ppm | 250 ppm |  |  |  |  |  |  |
| CC(C)=CCCC(C)=CC=O [Citral, 3,7-dimethyl-2,6-octadien-1-al] |  |  | 0.05 µg/mL | 0.01 µg/mL | > 0.03 µg/mL | 0.01 µg/mL | 0.94 µg/mL | concentration in growth media that reduced the concentration of E. coli (E. coli): more than 0.01%; concentration with bactericidal effect (E. coli): 0.08%; concentration up to which a solution can be made [1]: about 500 ppm; concentration up to which a stable suspension can be formed [1]: about 2500 ppm; yellow color (citral oxidation product) over time ([2]; aqueous emulsion): turned a progressively increasing yellow color over time; yellow color (citral oxidation product) over time ([2]; encapsulated in Bakers YP): turned a progressively increasing yellow color over time; citral stability (yellow color over time) ([2]; encapsulated in SAF Mannan): increased citral stability; citral stability (absence of yellow colour) ([2]; loaded in SAF Mannan, after 24 hours at 37° C.): remains stable |
| C=CCc1ccc(O)c(OC)c1 [E (2)] | 125 ppm | 250 ppm |  |  |  |  |  |  |
| C=CCc1ccc(O)c(OC)c1 [Eugenol, eugenol] |  |  | 0.05 µg/mL | 0.03 µg/mL | 0.05 µg/mL | 0.01 µg/mL | 0.12 µg/mL |  |
| CC(C)=CCC/C(C)=C/CO [G (1)] | 250 ppm | 250 ppm |  |  |  |  |  |  |
| CC(C)=CCC/C(C)=C/CO [Geraniol, geraniol] |  |  | 0.06 µg/mL | 0.03 µg/mL | > 0.03 µg/mL | 0.02 µg/mL | 0.47 µg/mL | concentration that inhibited the growth of H. pylori (H. pylori): 2 mg/L |
| C=C(C)[C@@H]1CC=C(C)C(=O)C1 [L (5)] | 250 ppm | 500 ppm |  |  |  |  |  |  |
| Cc1ccc(C(C)C)c(O)c1 [T (3)] | 125 ppm | 250 ppm |  |  |  |  |  |  |
| L-carvone |  |  |  |  |  |  |  | MIC μg/ml terpene, Bakers Freeze Dried (S. aureus; encapsulated in Baker's YP, freeze dried): >0.04 µg/mL; MIC μg/ml terpene, Bakers Fresh (S. aureus; encapsulated in Baker's YP, fresh): 0.1 µg/mL; MIC μg/ml terpene, SAF Mannan Freeze Dried (S. aureus; encapsulated in SAF Mannan, freeze dried): >0.02 µg/mL; MIC μg/ml terpene, SAF Mannan Fresh (S. aureus; encapsulated in SAF Mannan, fresh): 0.01 µg/mL; MIC μg/ml terpene, Emulsion (S. aureus; terpene emulsion, not encapsulated): 3.75 µg/mL |
